# In patent US20240024333A1, “USE OF SMALL MOLECULE FAK ACTIVATORS TO PROMOTE MUCOSAL HEALING” (Regents of the University of Minnesota, priority 2020, published 2024):
# pEC50, pIC50: −log10 of the molar value. “Also recorded” adds a separate entry of the source. Read-outs that look alike come from different tables or passages of the source.
# What was measured:
# FAK = biological target: T1, FAK (Homo sapiens, UniProt Q05397); assay: Cell-based FAK-Tyr-397 activation (Western blot, Caco-2 cells); details: for FAK-Tyr-397/FAK fold change: Cell-based FAK-Tyr-397 activation; for FAK activation / FAK-Tyr-397 phosphorylation (in words): vs. DMSO vehicle control
# T1 construct: endogenous in cells; host or cells: Caco-2 (human, ATCC)
# T1 sequence (Q05397 whole entry): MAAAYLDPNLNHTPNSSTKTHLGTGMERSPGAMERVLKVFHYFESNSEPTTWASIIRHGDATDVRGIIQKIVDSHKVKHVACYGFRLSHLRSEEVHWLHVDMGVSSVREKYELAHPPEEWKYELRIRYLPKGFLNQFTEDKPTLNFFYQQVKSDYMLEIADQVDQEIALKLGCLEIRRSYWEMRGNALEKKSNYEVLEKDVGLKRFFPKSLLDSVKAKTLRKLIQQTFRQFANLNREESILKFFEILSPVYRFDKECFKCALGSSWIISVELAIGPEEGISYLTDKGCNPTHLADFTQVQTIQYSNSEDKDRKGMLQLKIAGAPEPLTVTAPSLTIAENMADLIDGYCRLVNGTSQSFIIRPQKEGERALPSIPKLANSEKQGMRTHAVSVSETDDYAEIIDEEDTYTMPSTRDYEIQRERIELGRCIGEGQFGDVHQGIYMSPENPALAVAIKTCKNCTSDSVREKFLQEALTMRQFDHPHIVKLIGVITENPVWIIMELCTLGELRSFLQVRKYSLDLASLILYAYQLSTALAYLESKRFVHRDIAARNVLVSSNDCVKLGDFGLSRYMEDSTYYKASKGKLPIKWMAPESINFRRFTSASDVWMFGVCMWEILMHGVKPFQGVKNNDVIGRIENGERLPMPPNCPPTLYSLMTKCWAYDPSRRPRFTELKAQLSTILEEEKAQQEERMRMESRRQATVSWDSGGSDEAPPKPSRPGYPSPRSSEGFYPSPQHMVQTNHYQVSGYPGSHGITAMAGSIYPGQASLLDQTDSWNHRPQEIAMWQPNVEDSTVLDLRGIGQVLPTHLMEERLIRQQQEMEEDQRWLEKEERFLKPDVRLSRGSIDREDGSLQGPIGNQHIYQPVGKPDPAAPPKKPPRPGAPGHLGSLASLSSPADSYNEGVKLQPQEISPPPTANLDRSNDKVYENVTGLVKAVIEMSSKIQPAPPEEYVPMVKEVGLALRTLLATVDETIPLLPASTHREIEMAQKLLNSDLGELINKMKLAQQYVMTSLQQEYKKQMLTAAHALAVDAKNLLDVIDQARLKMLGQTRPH
# Description: Human Caco-2 cells were from ATCC (Manassas, VA) and maintained in Dulbecco's Modified Essential Eagle's Medium supplemented with 10% FBS as described by us previously 25. 80-90% confluent Caco-2 cells were seeded into cell culture plates pacificated with 1% heat inactivated bovine serum albumin to prevent adhesion and avoid adhesion-associated background FAK activation. Suspended cells were then treated with DMSO (0.1%) or small molecules for 1 hour before harvesting for Western blotting.
# Cells were lysed and protein concentration was determined via bicinchoninic acid protein assay (Thermo Fisher, Rockford, IL). […] Images were taken using a LICOR-Odyssey-Fc imaging system (LI-COR Biosciences, Lincoln, NE).
# Caco-2 cells = assay: Caco-2 monolayer wound closure assay; assay type: cell-based, human; details: for monolayer wound closure / epithelial sheet migration (in words): in vitro, 24 hours
# Description: Caco-2 cells were seeded at 75-80% confluence into collagen I coated 6-well plates. When the cells reached 100% confluence, wounds were made in the monolayers with non-barrier autoclaved tips. Wound images were captured using an inverted light microscope (OLYMPUS CK2, Center Valley, PA) at 0 hours and 24 hours after treatment with DMSO or small molecules. Wound areas were measured with Image J software.
# Pyk2 = biological target: T2, Pyk2 (Homo sapiens, UniProt Q14289); assay: Pyk2 activation in intact cells; assay type: cell-based
# T2 construct: endogenous in cells; host or cells: Caco-2
# T2 sequence (Q14289 whole entry): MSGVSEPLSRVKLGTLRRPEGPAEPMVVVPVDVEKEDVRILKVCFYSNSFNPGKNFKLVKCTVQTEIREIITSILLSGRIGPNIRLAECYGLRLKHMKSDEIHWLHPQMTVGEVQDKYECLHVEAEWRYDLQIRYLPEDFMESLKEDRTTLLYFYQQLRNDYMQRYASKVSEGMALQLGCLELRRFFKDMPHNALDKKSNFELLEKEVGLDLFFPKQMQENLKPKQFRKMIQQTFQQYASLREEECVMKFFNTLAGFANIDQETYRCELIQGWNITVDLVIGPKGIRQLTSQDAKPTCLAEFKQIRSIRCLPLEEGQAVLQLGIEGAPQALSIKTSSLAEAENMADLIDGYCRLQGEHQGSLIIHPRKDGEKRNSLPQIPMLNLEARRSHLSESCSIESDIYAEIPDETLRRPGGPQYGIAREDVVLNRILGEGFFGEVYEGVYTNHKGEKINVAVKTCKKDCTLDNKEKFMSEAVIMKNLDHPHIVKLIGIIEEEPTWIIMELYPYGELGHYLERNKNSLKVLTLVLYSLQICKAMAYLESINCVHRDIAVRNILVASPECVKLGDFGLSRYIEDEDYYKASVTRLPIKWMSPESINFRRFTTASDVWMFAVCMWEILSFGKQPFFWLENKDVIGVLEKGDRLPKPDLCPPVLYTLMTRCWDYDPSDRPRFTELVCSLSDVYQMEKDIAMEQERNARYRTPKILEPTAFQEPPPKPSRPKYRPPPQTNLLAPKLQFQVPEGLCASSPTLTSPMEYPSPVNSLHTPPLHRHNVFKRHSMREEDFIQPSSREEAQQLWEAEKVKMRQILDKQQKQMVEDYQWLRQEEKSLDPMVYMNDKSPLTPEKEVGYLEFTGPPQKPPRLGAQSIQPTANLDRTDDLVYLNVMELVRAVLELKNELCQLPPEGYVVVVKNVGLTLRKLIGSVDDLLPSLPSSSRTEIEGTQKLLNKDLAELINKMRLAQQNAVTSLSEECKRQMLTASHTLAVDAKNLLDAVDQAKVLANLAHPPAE
# Src = biological target: T3, Src (Homo sapiens, UniProt P12931); assay: Src activation in intact cells; assay type: cell-based
# T3 construct: endogenous in cells; host or cells: Caco-2
# T3 sequence (P12931 whole entry): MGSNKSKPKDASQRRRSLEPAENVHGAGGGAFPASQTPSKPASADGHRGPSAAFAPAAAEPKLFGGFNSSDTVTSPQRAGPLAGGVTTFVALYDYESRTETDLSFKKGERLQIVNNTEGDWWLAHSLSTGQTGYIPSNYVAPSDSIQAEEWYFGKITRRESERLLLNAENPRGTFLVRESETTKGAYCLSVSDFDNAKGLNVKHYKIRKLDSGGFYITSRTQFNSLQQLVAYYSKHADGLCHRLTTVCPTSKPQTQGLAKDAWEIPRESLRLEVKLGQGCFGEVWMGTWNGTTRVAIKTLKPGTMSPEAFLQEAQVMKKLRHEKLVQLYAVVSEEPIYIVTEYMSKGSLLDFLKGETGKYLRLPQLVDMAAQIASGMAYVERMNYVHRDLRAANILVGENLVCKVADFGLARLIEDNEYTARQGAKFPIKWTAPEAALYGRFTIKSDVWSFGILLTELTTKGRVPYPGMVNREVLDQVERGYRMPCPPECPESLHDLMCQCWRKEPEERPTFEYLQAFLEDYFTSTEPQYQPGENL
# [1] = tested on: ischemic ileal mucosal ulcers; assay: Ischemic ileal ulcer model (acetic-acid-soaked discs on serosa); assay type: in vivo, mice; details: for ischemic ulcer healing (in words): mice, 40: 30 mg/kg/day by osmotic minipump, 4 days, 30 mg/kg/day
# [2] = tested on: intestinal mucosal ulcers; assay: Intestinal mucosal healing in vivo (model not given); design: species or system mice; details: mouse
# [3] = tested on: IMR-90 human pulmonary fibroblasts; assay: Cytotoxicity in IMR-90 cells; assay type: cell-based; details: for Cytotoxicity (LD50): IMR90
# [4] = tested on: SH-SY5Y human neuronal cells; assay: Cytotoxicity in SH-SY5Y cells; assay type: cell-based
# [5] = B/P ratio and blood-brain barrier crossing; assay type: in vivo; details: for blood-brain barrier crossing (in words): in vivo
# Human plasma stability = assay type: in vitro ADME; details: at 6 h
# Plasma protein binding = assay type: in vitro ADME
# Text: (§1) The most successful molecules underwent in vitro ADMET assays, including mouse and human metabolic stability, solubility (pH 7.4), Caco-2 (permeability), and log D determination. We will evaluate lead candidates for drug-like properties, including aqueous solubility (PBS buffer, pH 7.4), pKa, lipophilicity, chemical stability at pH 1 (the pH of the stomach), pH 6 (small intestine), A-B partitioning (octanol-PBS buffer, pH 7.4), liver microsomal stability as an indication of potential first-pass metabolism (microsomes from mouse and humans), substrate potential for isoforms of human P450 such as CYP3A4, cell permeability (Caco-2 cells), hERG toxicity (cell lines), mutagenesis, and plasma protein binding (mouse & human). […]. Computed physical properties that correlate with good oral bioavailability and cell permeability will be calculated for new compounds throughout the optimization process and will […] also influence lead compound selection as will ligand efficiency (LE) and lipophilic efficiency (LLE). Molecules will be administered by gavage to mice at 30 mg/kg, and we will measure plasma levels at 2 and 4 hours. The most successful molecules in this regard (with the highest levels at 2 and 4 hours) may be further modified by developing combinations of modifications at different parts of the molecule.
# CYP 2C9 = CYP 2C9 (Homo sapiens, UniProt P11712); assay: CYP 2C9 inhibition; assay type: in vitro ADME
# Text: as §1
# CYP 2C19 = CYP 2C19 (Homo sapiens, UniProt P33261); assay: CYP 2C19 inhibition; assay type: in vitro ADME
# Chain of CYP 2C19 (P33261 whole entry): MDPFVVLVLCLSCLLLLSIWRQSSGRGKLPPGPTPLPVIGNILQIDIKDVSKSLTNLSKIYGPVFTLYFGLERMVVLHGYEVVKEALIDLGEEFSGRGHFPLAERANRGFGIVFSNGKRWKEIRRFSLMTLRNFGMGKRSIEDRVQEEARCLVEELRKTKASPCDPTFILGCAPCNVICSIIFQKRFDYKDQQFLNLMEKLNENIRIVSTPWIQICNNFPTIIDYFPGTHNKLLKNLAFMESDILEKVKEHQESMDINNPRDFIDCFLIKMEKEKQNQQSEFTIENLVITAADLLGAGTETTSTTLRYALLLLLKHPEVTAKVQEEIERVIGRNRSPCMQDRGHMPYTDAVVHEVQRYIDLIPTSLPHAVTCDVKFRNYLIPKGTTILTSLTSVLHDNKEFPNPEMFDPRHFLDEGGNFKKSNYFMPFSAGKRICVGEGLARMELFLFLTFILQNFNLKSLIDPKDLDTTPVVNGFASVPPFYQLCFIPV
# Text: as §1
# CYP 2D6 = CYP 2D6 (Homo sapiens, UniProt P10635); assay: CYP 2D6 inhibition; assay type: in vitro ADME
# Chain of CYP 2D6 (P10635 whole entry): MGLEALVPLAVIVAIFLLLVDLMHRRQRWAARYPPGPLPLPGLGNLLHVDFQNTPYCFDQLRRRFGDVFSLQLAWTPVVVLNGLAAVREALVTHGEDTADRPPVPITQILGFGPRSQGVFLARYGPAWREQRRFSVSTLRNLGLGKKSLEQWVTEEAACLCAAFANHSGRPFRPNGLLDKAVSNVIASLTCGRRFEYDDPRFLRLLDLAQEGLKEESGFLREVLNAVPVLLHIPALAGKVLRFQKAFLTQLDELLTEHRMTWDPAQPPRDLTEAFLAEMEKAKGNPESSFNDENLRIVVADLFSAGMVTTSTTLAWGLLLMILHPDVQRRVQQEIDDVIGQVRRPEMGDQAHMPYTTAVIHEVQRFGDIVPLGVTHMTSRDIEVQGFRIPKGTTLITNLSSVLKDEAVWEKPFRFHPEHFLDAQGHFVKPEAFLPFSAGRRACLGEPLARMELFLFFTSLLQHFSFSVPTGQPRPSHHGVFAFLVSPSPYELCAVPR
# Text: as §1
# hERG = hERG (Homo sapiens, UniProt Q12809); assay: hERG toxicity; assay type: cell-based
# Chain of hERG (Q12809 whole entry): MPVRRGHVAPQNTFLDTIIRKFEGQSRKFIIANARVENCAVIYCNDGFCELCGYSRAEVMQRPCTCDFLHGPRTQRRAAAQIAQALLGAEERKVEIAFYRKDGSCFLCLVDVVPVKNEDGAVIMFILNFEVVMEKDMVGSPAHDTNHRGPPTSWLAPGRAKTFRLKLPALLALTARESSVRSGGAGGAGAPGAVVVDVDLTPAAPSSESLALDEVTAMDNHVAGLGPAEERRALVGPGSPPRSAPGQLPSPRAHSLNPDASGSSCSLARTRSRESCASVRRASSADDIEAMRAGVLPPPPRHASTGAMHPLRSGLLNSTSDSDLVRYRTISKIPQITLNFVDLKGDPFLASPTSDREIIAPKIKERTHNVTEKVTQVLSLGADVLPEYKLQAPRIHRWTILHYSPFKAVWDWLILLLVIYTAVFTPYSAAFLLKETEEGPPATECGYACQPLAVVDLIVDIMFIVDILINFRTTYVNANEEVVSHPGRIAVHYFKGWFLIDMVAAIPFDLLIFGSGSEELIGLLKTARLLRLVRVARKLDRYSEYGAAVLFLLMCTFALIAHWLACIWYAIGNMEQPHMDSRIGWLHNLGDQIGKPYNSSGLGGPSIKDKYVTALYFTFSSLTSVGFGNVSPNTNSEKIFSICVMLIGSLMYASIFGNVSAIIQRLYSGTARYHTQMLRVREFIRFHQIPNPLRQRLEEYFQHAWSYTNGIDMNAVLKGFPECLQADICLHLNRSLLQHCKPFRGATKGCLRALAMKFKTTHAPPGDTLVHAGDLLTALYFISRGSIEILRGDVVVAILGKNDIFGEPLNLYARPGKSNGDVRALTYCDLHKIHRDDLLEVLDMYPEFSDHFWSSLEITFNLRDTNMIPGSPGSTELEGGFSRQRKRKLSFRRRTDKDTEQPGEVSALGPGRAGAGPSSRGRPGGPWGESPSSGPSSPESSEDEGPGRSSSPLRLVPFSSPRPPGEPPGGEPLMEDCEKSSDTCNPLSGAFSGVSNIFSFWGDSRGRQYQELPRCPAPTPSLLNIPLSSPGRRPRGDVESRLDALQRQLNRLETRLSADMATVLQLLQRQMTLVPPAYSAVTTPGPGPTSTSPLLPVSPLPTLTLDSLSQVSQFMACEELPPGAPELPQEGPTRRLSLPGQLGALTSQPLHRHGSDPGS
# Text: as §1
# Mini-Ames = assay: Mini-Ames
# Text: as §1
# log D determination = assay type: physicochemical; details: pH 7.4
# Text: as §1
# Solubility = assay type: physicochemical
# Text: as §1
# mice [6] = details: mouse, in vivo
# [7] = mouse, in vivo; for course of plasma levels after enteral dosing (in words): 10 mg/kg
# in vivo = details: mouse
# FAK 35 kD kinase domain = FAK 35 kD kinase domain (Homo sapiens, UniProt Q05397); assay: In vitro kinase assay with purified FAK kinase domain; details: FIG. 5
# Chain of FAK 35 kD kinase domain (Q05397 422-680 limits assumed): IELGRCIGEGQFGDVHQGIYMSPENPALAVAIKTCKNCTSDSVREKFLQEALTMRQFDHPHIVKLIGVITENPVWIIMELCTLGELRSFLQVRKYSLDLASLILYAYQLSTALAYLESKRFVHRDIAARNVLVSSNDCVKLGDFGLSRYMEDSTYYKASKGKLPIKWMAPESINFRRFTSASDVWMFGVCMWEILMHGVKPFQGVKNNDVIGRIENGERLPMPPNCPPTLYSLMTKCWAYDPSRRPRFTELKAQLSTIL
# [8] = Cytotoxicity (cells not named); assay type: cell-based
# mice [9] = assay: Tolerability and toxicity in mice
# [10] = over 8 weeks; cited from earlier work
smiles,measurement,setting,value
O=C(Nc1cc(C(F)(F)F)ccc1N1CCOCC1)N1CCCC1c1ccc(O)cc1 (centres unmarked) [Compound 49],FAK-Tyr-397/FAK fold change,FAK,1.1 fold change
O=C(Nc1cc(C(F)(F)F)ccc1N1CCOCC1)N1CCCC1C1CCCCC1 (centres unmarked) [Compound 36],FAK activation / FAK-Tyr-397 phosphorylation (in words),FAK,seemed to activate FAK
O=C(Nc1cc(C(F)(F)F)ccc1N1CCOCC1)N1CCCC1c1ccncc1 (centres unmarked) [Compound 24],concentration level of FAK activation (in words),FAK,considerably lower concentration than 45
same,concentration as low as which FAK is activated,FAK; Caco-2 cells,0.1 nM
same,pEC50,"FAK; in vitro, assay not named in Table 4, read-out: FAK potency EC50",> 8.00
same,FAK activation / FAK-Tyr-397 phosphorylation (in words),FAK,seemed to activate FAK
same,concentration as low as which in vitro wound closure is stimulated,Caco-2 cells,100 pM
same,Selectivity against relative off-targets: no Pyk2 activation at multiple of FAK activation,Pyk2,activation at >1000 × × FAK activation
same,Selectivity against relative off-targets: no Src activation at multiple of FAK activation,Src,activation at >1000 × × FAK activation
same,ischemic ulcer healing (in words),[1],accelerated; also recorded: can heal intestinal mucosal ulcers
same,Mouse therapeutic dose,[1]; × 4 days,<30 mg/kg/day
same,intestinal mucosal healing in vivo (in words),[2],promoting small bowel mucosal wound healing
same,Cytotoxicity (LD50),[3],>1 mM
same,Cytotoxicity (LD50),[4],>1 mM
same,B/P ratio,[5]; 2 h,B/P ratio <0.15
same,blood-brain barrier crossing (in words),[5],cross the blood-brain barrier
same,Human plasma stability,Human plasma stability,98.62% at 6 h
same,fraction unbound,Plasma protein binding; plasma,0.0949
same,pIC50,CYP 2C9,5.35
same,pIC50,CYP 2C19,5.27
same,pIC50,CYP 2D6,5.00
same,hERG,hERG,hERG = 2.958 μM
same,Mini-Ames,Mini-Ames,negative
same,log D7.4,log D determination,log D7.4 = 3.12
same,water solubility / need of DMSO (in words),Solubility,required DMSO solubilization; also recorded: somewhat less insoluble
same,solubility,"Solubility; PBS buffer, pH 7.4, aqueous buffer",252 µM
same,neurotoxicity (in words),mice [6],no neurotoxicity was detected
same,tolerability / gross toxicity in mice (in words),mice [6],without obvious toxicity
same,oral / enteral absorption (in words),[7]; po,readily orally
same,half-life,in vivo; T1/2,~1.5 h
same,concentration of maximal effect in in vitro kinase assay,FAK 35 kD kinase domain,about 0.3 nM
O=C(Nc1ccccc1N1CCOCC1)N1CCCC1c1ccncc1 (centres unmarked) [Compound 46],FAK-Tyr-397/FAK fold change,FAK,1.1 fold change
same,FAK activation / FAK-Tyr-397 phosphorylation (in words),FAK,did not induce FAK phosphorylation
CN(C)C(CNC(=O)Nc1cc(C(F)(F)F)ccc1N1CCOCC1)c1ccncc1 (centres unmarked) [Compound 40],wound closure after two 2-hour exposures vs full 24 hours of exposure,Caco-2 cells; 100 nM,equivalent stimulation of wound closure
same,wound closure at 24 hours after three-hour exposure vs 24 hours exposure,"Caco-2 cells; 100 nM, medium changed back after exposure",same effect as 24 hours
same,wound closure with proliferation blocked by hydroxyurea (in words),Caco-2 cells; hydroxyurea present,still stimulates Caco-2 monolayer wound closure
same,monolayer wound closure / epithelial sheet migration (in words),Caco-2 cells,stimulates wound closure; also recorded: promotes epithelial monolayer wound healing; also recorded: dose-responsive stimulation
same,Pyk2 activation (in words),Pyk2; at 10 μM,does not activate
same,Src activation (in words),Src; at 10 μM,does not activate
same,ischemic ulcer healing (in words),[1],much smaller ulcers; also recorded: acceleration of healing
same,Cytotoxicity (LD50),[3],SYSY (LD50)~1 mM
same,concentration at which cytotoxicity is displayed,[3]; IMR-90,1000 µM
same,cytotoxic concentration as multiple of the 100 pM that activates FAK,[3]; IMR-90,10^7 ×
same,Cytotoxicity (LD50),[4],SYSY (LD50)~1 mM
same,concentration at which cytotoxicity is displayed,[4],1000 µM
same,cytotoxic concentration as multiple of the 100 pM that activates FAK,[4],10^7 ×
same,cytotoxicity (in words),[8],no cytotoxicity at 10000× higher than effective doses; also recorded: neither cytotoxic nor carcinogenic
same,blood-brain barrier crossing (in words),[5],cross the blood-brain barrier
same,Human plasma stability,Human plasma stability,88.56% at 6 h
same,Plasma protein binding,Plasma protein binding,91.39%
same,hERG,hERG; human,hERG > 30 μM
same,Mini-Ames,Mini-Ames,negative
same,log D7.4,log D determination,log D7.4 = 2.87
same,water solubility / need of DMSO (in words),Solubility,does not require DMSO; also recorded: truly water soluble
same,neurotoxicity (in words),mice [6],no neurotoxicity was detected
same,"renal/hepatic histology, creatinine, ALT (in words)",mice [6],normal
same,serum chemistries (in words),mice [6]; 120 mg/kg,normal
same,course of plasma levels after enteral dosing (in words),[7],decline by two hours
same,course of plasma levels after enteral dosing (in words),[7]; 2 h,decrease by 2 hours
same,plasma level after 240 mg/kg as multiple of therapeutic plasma level,[7]; 1 h,~6*10^6 ×
same,concentration at 4 days,in vivo; 1.25 mg/kg,26 ng/mL
same,half-life,in vivo; T1/2,~1.5 h
same,half-life,in vivo; plasma half-life,1.5 h
same,lethal single dose,mice [9],480 mg/kg
COc1ccc(C2CCCN2C(=O)CC(NC(N)=O)c2ccccc2Cl)cc1OC (centres unmarked) [Compound 10],concentration as low as which FAK is activated,FAK,10 nM
CCCCC(C)(O)C/C=C/[C@H]1[C@H](O)CC(=O)[C@@H]1CCCCCCC(=O)OC (mixture of isomers) [Misoprostol],serious side effects,[10],8%
COc1ccc(C(CNC(=O)Nc2cc(C(F)(F)F)ccc2N2CCOCC2)N(C)C)cc1 (centres unmarked) [Compound 31],FAK activation / FAK-Tyr-397 phosphorylation (in words),FAK,seemed to activate FAK
O=C(Nc1cc(C(F)(F)F)ccc1N1CCOCC1)N1CCCC1c1ccccc1 (centres unmarked) [Compound 37],FAK activation / FAK-Tyr-397 phosphorylation (in words),FAK,seemed to activate FAK
COc1ccc(C2CCCN2C(=O)Nc2cc(C(F)(F)F)ccc2N2CCOCC2)cc1 (centres unmarked) [Compound 9],concentration as low as which FAK is activated,FAK,10 nM
same,FAK activation / FAK-Tyr-397 phosphorylation (in words),FAK,increased FAK-Tyr 397 phosphorylation
same,monolayer wound closure / epithelial sheet migration (in words),Caco-2 cells,stimulated monolayer wound closure
same,Pyk2 activation (in words),Pyk2; intact cells,activating neither
same,Src activation (in words),Src; intact cells,activating neither
same,intestinal mucosal healing in vivo (in words),[2],stimulated
COc1ccc(CC(C)C(=O)Nc2ccc(N(C)C)cc2C)cc1 (centres unmarked) [Compound 19],FAK activation / FAK-Tyr-397 phosphorylation (in words),FAK,does not enhance FAK activation
O=C(Nc1cc(F)ccc1N1CCOCC1)N1CCCC1c1ccncc1 (centres unmarked) [Compound 25],FAK activation / FAK-Tyr-397 phosphorylation (in words),FAK,does not impair activity
CCN(C(=O)Nc1ccccc1N1CCOCC1)C(C)c1ccccc1 (centres unmarked) [Compound 48],FAK-Tyr-397/FAK fold change,FAK,1.1 fold change
same,FAK activation / FAK-Tyr-397 phosphorylation (in words),FAK,did not induce FAK phosphorylation
O=C(Nc1cc(C(F)(F)F)ccc1C1CCOCC1)N1CCCC1c1ccccc1 (centres unmarked) [Compound 14],FAK-Tyr-397/FAK fold change,FAK,1.0 fold change
same,FAK activation / FAK-Tyr-397 phosphorylation (in words),FAK,reduced activation
O=C(Nc1cc(C(F)(F)F)ccc1N1CCOCC1)N1CCCC1C1CCCCC1 (centres unmarked) [Compound 21],concentration level of FAK activation (in words),FAK,nanomolar to picomolar levels
same,FAK activation / FAK-Tyr-397 phosphorylation (in words),FAK,increased; also recorded: stimulate FAK phosphorylation at remarkably low concentrations
same,monolayer wound closure / epithelial sheet migration (in words),Caco-2 cells,promote the healing of intestinal epithelial wounds in vitro
